Measurements as given in ChEMBL document CHEMBL4411296, “Design and development of Isatin-triazole hydrazones as potential inhibitors of microtubule affinity-regulating kinase 4 for the therapeutic management of cell proliferation and metastasis” (Eur J Med Chem, 2019).

Key:
Format in all cases: functional
MDA-MB-435 = experiment: Growth inhibition of human MDA-MB-435 cells assessed as cell growth at 10 uM after 48 hrs by sulforhodamine B assay relative to control; settings: MDA-MB-435, 48 h, read-out: Activity
CAKI-1 = experiment: Growth inhibition of human Caki1 cells assessed as cell growth at 10 uM after 48 hrs by sulforhodamine B assay relative to control; settings: CAKI-1, 48 h, read-out: Activity
IGROV-1 = experiment: Growth inhibition of human IGROV1 cells assessed as cell growth at 10 uM after 48 hrs by sulforhodamine B assay relative to control; settings: IGROV-1, 48 h, read-out: Activity
SK-MEL-5 = experiment: Growth inhibition of human SK-MEL-5 cells assessed as cell growth at 10 uM after 48 hrs by sulforhodamine B assay relative to control; settings: SK-MEL-5, 48 h, read-out: Activity
A498 = experiment: Growth inhibition of human A498 cells assessed as cell growth at 10 uM after 48 hrs by sulforhodamine B assay relative to control; settings: A498, 48 h, read-out: Activity
HCT-15 = experiment: Growth inhibition of human HCT15 cells assessed as cell growth at 10 uM after 48 hrs by sulforhodamine B assay relative to control; settings: HCT-15, 48 h, read-out: Activity
MDA-MB-468 = experiment: Growth inhibition of human MDA-MB-468 cells assessed as cell growth at 10 uM after 48 hrs by sulforhodamine B assay relative to control; settings: MDA-MB-468, 48 h, read-out: Activity
HCT-116 = experiment: Growth inhibition of human HCT116 cells assessed as cell growth at 10 uM after 48 hrs by sulforhodamine B assay relative to control; settings: HCT-116, 48 h, read-out: Activity
OVCAR-5 = experiment: Growth inhibition of human OVCAR5 cells assessed as cell growth at 10 uM after 48 hrs by sulforhodamine B assay relative to control; settings: OVCAR-5, 48 h, read-out: Activity
NCI-H322M = experiment: Growth inhibition of human NCI-H322M cells assessed as cell growth at 10 uM after 48 hrs by sulforhodamine B assay relative to control; settings: read-out: Activity
SK-MEL-28 = experiment: Growth inhibition of human SK-MEL-28 cells assessed as cell growth at 10 uM after 48 hrs by sulforhodamine B assay relative to control; settings: SK-MEL-28, 48 h, read-out: Activity
RXF 393 = experiment: Growth inhibition of human RXF393 cells assessed as cell growth at 10 uM after 48 hrs by sulforhodamine B assay relative to control; settings: RXF 393, 48 h, read-out: Activity
CCRF-CEM = experiment: Growth inhibition of human CCRF-CEM cells assessed as cell growth at 10 uM after 48 hrs by sulforhodamine B assay relative to control; settings: read-out: Activity
SNB-75 = experiment: Growth inhibition of human SNB75 cells assessed as cell growth at 10 uM after 48 hrs by sulforhodamine B assay relative to control; settings: SNB-75, 48 h, read-out: Activity
SF-268 = experiment: Growth inhibition of human SF268 cells assessed as cell growth at 10 uM after 48 hrs by sulforhodamine B assay relative to control; settings: SF-268, 48 h, read-out: Activity
A549 = experiment: Growth inhibition of human A549/ATCC cells assessed as cell growth at 10 uM after 48 hrs by sulforhodamine B assay relative to control; settings: A549, 48 h, read-out: Activity
OVCAR-3 = experiment: Growth inhibition of human OVCAR3 cells assessed as cell growth at 10 uM after 48 hrs by sulforhodamine B assay relative to control; settings: OVCAR-3, 48 h, read-out: Activity
786-0 = experiment: Growth inhibition of human 786-0 cells assessed as cell growth at 10 uM after 48 hrs by sulforhodamine B assay relative to control; settings: 786-0, 48 h, read-out: Activity
M14 = experiment: Growth inhibition of human M14 cells assessed as cell growth at 10 uM after 48 hrs by sulforhodamine B assay relative to control; settings: M14, 48 h, read-out: Activity
UACC-257 = experiment: Growth inhibition of human UACC257 cells assessed as cell growth at 10 uM after 48 hrs by sulforhodamine B assay relative to control; settings: UACC-257, 48 h, read-out: Activity
OVCAR-8 = experiment: Growth inhibition of human OVCAR8 cells assessed as cell growth at 10 uM after 48 hrs by sulforhodamine B assay relative to control; settings: OVCAR-8, 48 h, read-out: Activity
MCF7 = experiment: Growth inhibition of human MCF7 cells assessed as cell growth at 10 uM after 48 hrs by sulforhodamine B assay relative to control; settings: MCF7, 48 h, read-out: Activity
RPMI-8226 = experiment: Growth inhibition of human RPMI8226 cells assessed as cell growth at 10 uM after 48 hrs by sulforhodamine B assay relative to control; settings: RPMI-8226, 48 h, read-out: Activity
SN12C = experiment: Growth inhibition of human SN12C cells assessed as cell growth at 10 uM after 48 hrs by sulforhodamine B assay relative to control; settings: read-out: Activity
DU-145 = experiment: Growth inhibition of human DU145 cells assessed as cell growth at 10 uM after 48 hrs by sulforhodamine B assay relative to control; settings: DU-145, 48 h, read-out: Activity
MOLT-4 = experiment: Growth inhibition of human MOLT4 cells assessed as cell growth at 10 uM after 48 hrs by sulforhodamine B assay relative to control; settings: MOLT-4, 48 h, read-out: Activity
NCI-H226 = experiment: Growth inhibition of human NCI-H226 cells assessed as cell growth at 10 uM after 48 hrs by sulforhodamine B assay relative to control; settings: NCI-H226, 48 h, read-out: Activity
UACC-62 = experiment: Growth inhibition of human UACC62 cells assessed as cell growth at 10 uM after 48 hrs by sulforhodamine B assay relative to control; settings: UACC-62, 48 h, read-out: Activity
TK-10 = experiment: Growth inhibition of human TK10 cells assessed as cell growth at 10 uM after 48 hrs by sulforhodamine B assay relative to control; settings: TK-10, 48 h, read-out: Activity
NCI-H460 = experiment: Growth inhibition of human NCI-H460 cells assessed as cell growth at 10 uM after 48 hrs by sulforhodamine B assay relative to control; settings: NCI-H460, 48 h, read-out: Activity
HOP-62 = experiment: Growth inhibition of human HOP62 cells assessed as cell growth at 10 uM after 48 hrs by sulforhodamine B assay relative to control; settings: HOP-62, 48 h, read-out: Activity
HL-60(TB) = experiment: Growth inhibition of human HL-60(TB) cells assessed as cell growth at 10 uM after 48 hrs by sulforhodamine B assay relative to control; settings: HL-60, 48 h, read-out: Activity
EKVX = experiment: Growth inhibition of human EKVX cells assessed as cell growth at 10 uM after 48 hrs by sulforhodamine B assay relative to control; settings: read-out: Activity

COc1ccc(Cn2cc(C(=O)N/N=C3/C(=O)Nc4c(C)cccc43)nn2)cc1
growth at 10 µM (MDA-MB-435): 82%
growth at 10 µM (CAKI-1): 77.1%
growth at 10 µM (IGROV-1): 84.8%
growth at 10 µM (SK-MEL-5): 93.8%
growth at 10 µM (A498): 101%
growth at 10 µM (HCT-15): 68%
growth at 10 µM (MDA-MB-468): 89.2%
growth at 10 µM (HCT-116): 7.1%
growth at 10 µM (OVCAR-5): 93.6%
growth at 10 µM (NCI-H322M): 89.6%
growth at 10 µM (SK-MEL-28): 94.9%
growth at 10 µM (RXF 393): 81.9%
growth at 10 µM (CCRF-CEM): 82.8%
growth at 10 µM (SNB-75): 27.3%
growth at 10 µM (SF-268): 87.3%
growth at 10 µM (A549): 85.3%
growth at 10 µM (OVCAR-3): 46.7%
growth at 10 µM (786-0): 43.5%
growth at 10 µM (M14): 71.9%
growth at 10 µM (UACC-257): 93.7%
growth at 10 µM (OVCAR-8): 67.6%
growth at 10 µM (MCF7): 84.9%
growth at 10 µM (RPMI-8226): 90%
growth at 10 µM (SN12C): 62.1%
growth at 10 µM (DU-145): 60.4%
growth at 10 µM (MOLT-4): 83.5%
growth at 10 µM (NCI-H226): 75.1%
growth at 10 µM (UACC-62): 74.1%
growth at 10 µM (TK-10): 56.1%
growth at 10 µM (NCI-H460): 73%
growth at 10 µM (HOP-62): 106%
growth at 10 µM (HL-60(TB)): 78.9%
growth at 10 µM (EKVX): 107%
